This passage reports IC50 results from US10782295B2, “Cysteine-reactive ligand discovery in proteomes” (THE SCRIPPS RESEARCH INSTITUTE, priority 2013, dated 2020).

Structures are written as SMILES.

For the experiment, the system named is AKT1/2/3. As to the kind of experiment: competitive isoTOP-ABPP, concentration-dependent HNE. The experiment is classed as binding, human. As to conditions: MDA-MB-231 proteome, read-out: IC50 for inhibition of cysteine (C311) in AKT1/2/3. How it is done: The MDA-MB-231 cell proteome was treated with varying concentrations of HNE (5, 10, 50, 100 and 500 μM) for 60 min and then the IA-labeling profile of each reaction was quantitatively compared to a DMSO-control sample by isoTOP-ABPP.
By combining the R values at all 5 HNE concentrations, we could extrapolate IC50 values for […] of IA probe-labeling for ˜700 of the 1100 cysteines (FIG. 3a).
HNE was purchased from EMD biosciences, 15d-PGJ2 was purchased from Cayman Chemicals and 2-HD was purchased from Santa Cruz Biotechnology. Proteome samples were diluted to a 4 mg protein/mL solution in PBS. […]
IA-probe labeled peptides were identified by SEQUEST2 and DTASelect3, and the quantification of heavy/light ratios (isoTOP-ABPP ratios, R) was performed by an in-house software (CIMAGE) as previously described. The software was advanced to be able to detect and quantify cases where near complete […] blockade of IA-probe labeling was achieved (e.g., very small or no light peak) and assign an empirical ratio cut-off of 15 to each of such cases. […] In the case of probe-modified peptides that were sequenced in one, but not the other runs, a featured algorithm of CIMAGE was utilized to identify the corresponding peak pairs in the runs without the SEQUEST identification and obtain quantification as previously described. […]

For the molecule `CCCCCC(O)/C=C/C=O` (stereo not shown) [4-HNE, 4-Hydroxynonenal], the IC50 was 60 µM.
